# Laboratory results as given in paper PMC10281575, “PfCRT mutations conferring piperaquine resistance in falciparum malaria shape the kinetics of quinoline drug binding and transport” (PLOS Pathogens, 2023).
# Several values for one entry are separate records, joined by “and”; a condition that tells them apart may be missing. Equal entries are not always repeated.
# Molecular target: T1, PfCRT^Dd2_F145I (Plasmodium falciparum, UniProt Q8IBZ9, A220S/F145I/I356T/K76T/M74I/N326S/N75E/Q271E/R371I)
# T1 construct: expressed in transfected cells; host or cells: Xenopus laevis oocytes injected with in vitro transcribed RNA (pSP64T)
# T1 sequence (Q8IBZ9 1-424 M74I/N75E/K76T/F145I/A220S/Q271E/N326S/I356T/R371I): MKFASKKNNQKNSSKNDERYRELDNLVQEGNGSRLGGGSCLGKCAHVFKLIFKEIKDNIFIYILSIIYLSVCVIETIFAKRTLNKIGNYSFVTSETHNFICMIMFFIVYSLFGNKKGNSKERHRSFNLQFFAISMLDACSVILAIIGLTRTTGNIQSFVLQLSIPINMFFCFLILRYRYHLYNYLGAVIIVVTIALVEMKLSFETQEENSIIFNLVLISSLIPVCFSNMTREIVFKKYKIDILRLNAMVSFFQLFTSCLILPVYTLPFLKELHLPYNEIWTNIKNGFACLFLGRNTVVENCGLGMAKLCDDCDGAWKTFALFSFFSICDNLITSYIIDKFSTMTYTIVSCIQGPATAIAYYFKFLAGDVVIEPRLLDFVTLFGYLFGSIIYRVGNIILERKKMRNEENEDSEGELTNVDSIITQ
# Experiment: Radiolabeled drug uptake in X. laevis oocytes expressing PfCRT^Dd2_F145I
# Assay type: cell-based
# From the text: The two kinetic parameters were derived by fitting the Michaelis-Menten equation to the kinetic data (Table 1).
# A codon-optimized coding sequence of the Dd2 isoform of PfCRT (PfCRT^Dd2) was subcloned into the pSP64T expression vector [21]. To generate the necessary mutations to introduce the amino acid substitutions H97Y, F145I, M343L or G353V into the pfcrt sequence, the overlap extension method was used. A region from the 5’-untranslated Xenopus β-globin sequence to the respective 3’ region, containing the full length pfcrt coding sequence, was amplified using the following primer pairs: for the H97Y mutation, numbers 1/4 and 2/3; for the F145I mutation, numbers 1/6 and 2/5; for the M343L mutation, numbers 1/8 and 2/7; and for the G353V mutation, numbers 1/10 and 2/9 (for primers, see S2 Table). Both PCR products were used as template for amplification of the final product using primers number 1/2. The resulting fragment was cloned into the pSP64T expression vector, and the presence of the desired mutation was confirmed by sequencing.
# Adult female X. laevis frogs (purchased from NASCO) were anesthetized by submersion in a solution of 0.3% (w/v) 3-amino benzoate methanesulfonate for 15 min. Sections of the ovary were surgically removed and placed in Ca^2+-free ND96 buffer supplemented with 0.1% collagenase D (w/v; Roche), 0.5% BSA (w/v) and 9 mM Na2HPO4 at 18°C for 14–16 h while gently shaking. The oocytes were then washed several times with ND96 buffer (5 mM HEPES, pH 7.5, 96 mM NaCl, 2 mM KCl, 1.8 mM CaCl2, 1 mM MgCl2), supplemented with […] gentamycin. Healthy-looking stage V-VI oocytes were manually selected and randomly grouped for injection. A codon-optimized coding sequence of PfCRT was subcloned into the pSP64T expression vector and subsequently linearized using the restriction endonuclease BamHI or SalI (New England Biolabs GmbH). RNA for injection was transcribed in vitro using the mMESSAGE mMACHINE SP6 Transcription kit (Ambion), diluted with nuclease-free water to a final concentration of 0.6 μg/μL and stored at -80°C. RNA was injected using precision-bore glass capillary tubes (3.5-inch glass capillaries; Drummond Scientific Co.), which were pulled on a vertical puller (P-87 Flaming/Brown micropipette puller, Sutter Instrument Co.) and graduated. The micropipettes were connected to a microinjector (Nanoject II Auto-Nanoliter Injector, Drummond Scientific Co.). Injection was conducted under stereomicroscopic control. 50 nL of nuclease-free water alone (control oocytes) or 50 nL of nuclease-free water containing 30 ng of RNA was injected per oocyte. Injected oocytes were kept for 72 h at 18°C in ND96 buffer with two daily buffer changes before being used for further experiments.
# Drug transport assays were performed as previously described. Briefly, measurements of radiolabeled drug uptake were made over 1 h, unless otherwise specified. […] Where specified, one or more unlabeled drugs were also present at the indicated concentrations. […] The uptake assays were terminated by removing the oocytes from the reaction medium and washing them three times with 2 mL of ice-cold ND96 buffer. Each oocyte was transferred to a separate scintillation vial and lysed by the addition of 200 μL of a 5% SDS solution. The radioactivity in the sample was measured using a liquid scintillation analyser Tri-Carb 4910 TR (PerkinElmer). Water-injected oocytes were analyzed in parallel as a negative control. The buffer from each condition was measured in duplicate in parallel to each experiment to transform counts per minute into pmol of drug. Drug uptake attributable to PfCRT was determined by subtracting the background uptake from water-injected oocytes from that of PfCRT-expressing oocytes.
# [1] = 50 μM PPQ, pH 6.0, total uptake, one value per biological replicate
# [2] = 50 μM PPQ, pH 6.0, water-injected uptake subtracted, per replicate
# [3] = 60 min, pH 6, per biological replicate
compound,measurement,setting,value
"Clc1ccc2c(N3CCN(CCCN4CCN(c5ccnc6cc(Cl)ccc56)CC4)CC3)ccnc2c1 [PPQ, piperaquine]",PfCRTDd2_F145I-mediated PPQ uptake at 10 µM PPQ,"10 µM PPQ, single replicates",11.21 pmol oocyte-1 h-1 and 11.88 pmol oocyte-1 h-1 and 9.04 pmol oocyte-1 h-1
same,PfCRTDd2_F145I PPQ uptake at 10 min,[1],41.61 pmol oocyte-1 and 17.68 pmol oocyte-1 and 66.82 pmol oocyte-1 and 63.70 pmol oocyte-1 and 39.93 pmol oocyte-1
same,PfCRTDd2_F145I PPQ uptake at 30 min,[1],65.21 pmol oocyte-1 and 116.16 pmol oocyte-1 and 126.02 pmol oocyte-1
same,PfCRTDd2_F145I PPQ uptake at 60 min,[1],236.23 pmol oocyte-1 and 329.69 pmol oocyte-1 and 256.17 pmol oocyte-1 and 126.53 pmol oocyte-1 and 203.02 pmol oocyte-1 and 85.96 pmol oocyte-1 and 54.49 pmol oocyte-1 and 109.72 pmol oocyte-1 and 205.44 pmol oocyte-1 and 121.75 pmol oocyte-1 and 41.63 pmol oocyte-1
same,PfCRTDd2_F145I PPQ uptake at 90 min,[1],231.09 pmol oocyte-1 and 187.07 pmol oocyte-1 and 164.98 pmol oocyte-1 and 158.85 pmol oocyte-1
same,PfCRTDd2_F145I PPQ uptake at 120 min,[1],355.30 pmol oocyte-1 and 204.11 pmol oocyte-1 and 281.88 pmol oocyte-1 and 284.17 pmol oocyte-1 and 64.48 pmol oocyte-1 and 488.71 pmol oocyte-1
same,PfCRTDd2_F145I PPQ uptake at 180 min,[1],182.19 pmol oocyte-1 and 278.77 pmol oocyte-1 and 329.69 pmol oocyte-1 and 378.75 pmol oocyte-1
same,PfCRTDd2_F145I-mediated PPQ uptake at 10 min,[2],21.57 pmol oocyte-1 and 6.53 pmol oocyte-1 and 19.62 pmol oocyte-1 and 21.70 pmol oocyte-1 and 15.89 pmol oocyte-1
same,PfCRTDd2_F145I-mediated PPQ uptake at 30 min,[2],25.28 pmol oocyte-1 and 34.52 pmol oocyte-1 and 15.41 pmol oocyte-1
same,PfCRTDd2_F145I-mediated PPQ uptake at 60 min,[2],39.58 pmol oocyte-1 and 153.01 pmol oocyte-1 and 36.72 pmol oocyte-1 and 18.65 pmol oocyte-1 and 19.44 pmol oocyte-1 and 16.68 pmol oocyte-1 and 27.82 pmol oocyte-1 and 75.44 pmol oocyte-1 and 27.59 pmol oocyte-1 and 15.54 pmol oocyte-1 and 75.68 pmol oocyte-1
same,PfCRTDd2_F145I-mediated PPQ uptake at 90 min,[2],89.48 pmol oocyte-1 and 78.18 pmol oocyte-1 and 49.49 pmol oocyte-1 and 48.14 pmol oocyte-1
same,PfCRTDd2_F145I-mediated PPQ uptake at 120 min,[2],115.65 pmol oocyte-1 and 103.98 pmol oocyte-1 and 53.31 pmol oocyte-1 and 32.06 pmol oocyte-1 and 52.11 pmol oocyte-1 and 114.20 pmol oocyte-1
same,PfCRTDd2_F145I-mediated PPQ uptake at 180 min,[2],46.86 pmol oocyte-1 and 115.74 pmol oocyte-1 and 109.59 pmol oocyte-1 and 113.43 pmol oocyte-1
same,PfCRTDd2_F145I-mediated PPQ uptake at 50 µM PPQ,"50 µM PPQ, single replicates",27.82 pmol oocyte-1 h-1 and 75.44 pmol oocyte-1 h-1 and 27.59 pmol oocyte-1 h-1 and 75.68 pmol oocyte-1 h-1 and 39.58 pmol oocyte-1 h-1 and 36.72 pmol oocyte-1 h-1 and 42.92 pmol oocyte-1 h-1
same,PfCRTDd2_F145I-mediated PPQ uptake at 100 µM PPQ,"100 µM PPQ, single replicates",60.49 pmol oocyte-1 h-1 and 74.22 pmol oocyte-1 h-1 and 87.33 pmol oocyte-1 h-1 and 56.31 pmol oocyte-1 h-1
same,PfCRTDd2_F145I-mediated PPQ uptake at 200 µM PPQ,"200 µM PPQ, single replicates",98.82 pmol oocyte-1 h-1 and 131.61 pmol oocyte-1 h-1 and 62.02 pmol oocyte-1 h-1 and 88.46 pmol oocyte-1 h-1
same,PfCRTDd2_F145I-mediated PPQ uptake at 300 µM PPQ,"300 µM PPQ, single replicates",115.45 pmol oocyte-1 h-1 and 117.23 pmol oocyte-1 h-1 and 91.14 pmol oocyte-1 h-1
same,PfCRTDd2_F145I-mediated PPQ uptake at 400 µM PPQ,"400 µM PPQ, single replicates",130.32 pmol oocyte-1 h-1 and 101.99 pmol oocyte-1 h-1 and 105.11 pmol oocyte-1 h-1
same,PfCRTDd2_F145I-mediated PPQ uptake at 500 µM PPQ,"500 µM PPQ, single replicates",124.15 pmol oocyte-1 h-1 and 149.83 pmol oocyte-1 h-1 and 96.18 pmol oocyte-1 h-1
same,PfCRTDd2_F145I-mediated PPQ uptake at 10 µM PPQ,[3],11.21 pmol oocyte-1 h-1 and 11.88 pmol oocyte-1 h-1 and 9.04 pmol oocyte-1 h-1
same,PfCRTDd2_F145I-mediated PPQ uptake at 50 µM PPQ,[3],39.58 pmol oocyte-1 h-1 and 36.72 pmol oocyte-1 h-1 and 42.92 pmol oocyte-1 h-1 and 27.82 pmol oocyte-1 h-1 and 75.44 pmol oocyte-1 h-1 and 27.59 pmol oocyte-1 h-1 and 75.68 pmol oocyte-1 h-1
same,PfCRTDd2_F145I-mediated PPQ uptake at 100 µM PPQ,[3],60.49 pmol oocyte-1 h-1 and 74.22 pmol oocyte-1 h-1 and 87.33 pmol oocyte-1 h-1 and 56.31 pmol oocyte-1 h-1
same,PfCRTDd2_F145I-mediated PPQ uptake at 200 µM PPQ,[3],98.82 pmol oocyte-1 h-1 and 131.61 pmol oocyte-1 h-1 and 62.02 pmol oocyte-1 h-1 and 88.46 pmol oocyte-1 h-1
same,PfCRTDd2_F145I-mediated PPQ uptake at 300 µM PPQ,[3],115.45 pmol oocyte-1 h-1 and 117.23 pmol oocyte-1 h-1 and 91.14 pmol oocyte-1 h-1
same,PfCRTDd2_F145I-mediated PPQ uptake at 400 µM PPQ,[3],130.32 pmol oocyte-1 h-1 and 101.99 pmol oocyte-1 h-1 and 105.11 pmol oocyte-1 h-1
same,PfCRTDd2_F145I-mediated PPQ uptake at 500 µM PPQ,[3],124.15 pmol oocyte-1 h-1 and 149.83 pmol oocyte-1 h-1 and 96.18 pmol oocyte-1 h-1
same,Km,"Michaelis-Menten fit, 10-500 μM drug, 60 min, pH 6, read-out: KM, Michaelis constant",115 ± 7 µM
same,increase of Vmax by the F145I substitution,versus PfCRT^Dd2,14%
